For the series the following is noted: amide bond, 24-membered ring.
Where [1] appears, read: 2-chloro-1-methylpyridinium iodide/TEA, DCM, 4.2 mM, 25.0 °C.

Read-outs that look alike come from different tables or passages of the source.

Consider “H-MeLeu-dLac-MeLeu-dLac-MeLeu-[3-oxy-2-oxopiperidin-1-yl (delta-lactam, replaces Lac + N-Me)]Leu-dPhLac-OH?”, for which the ring closure, isolated yield (the molecule shown is the open-chain precursor, BOP-Cl/DIEA, CH2Cl2, 0.98 mM) is 48%.

For the setting “the molecule shown is the open-chain precursor, BOP-Cl/DIEA, CH2Cl2, 0.99 mM”, “H-MeLeu-dLac-MeLeu-dPhLac-MeLeu-[3-oxy-2-oxopiperidin-1-yl (delta-lactam, replaces Lac + N-Me)]Leu-dPhLac-OH?” came in with a ring closure, isolated yield of 65%.

Under “2-chloro-1-methylpyridinium iodide/TEA, DCM, 4.75 mM, 25.0 °C”, “cvlo(D-2-hydroxypropanoyl-L-pipecolyl-D-2-hydroxypropanoyl-N-methyl-L-leucyl-D-2-hydroxypropanoyl-N-methyl-L-leucyl-D-2-hydroxypropanoyl-N-methyl-L-leucyl)” gave a ring closure, isolated yield of 34%. In the case of “cyclo(D-2-hydroxy-3-phenylpropanoyl-L-pipecolyl-D-2-hydroxypropanoyl-N-methyl-L-leucyl-D-2-hydroxy-3-phenylpropanoyl-N-methyl-L-leucyl-D-2-hydroxypropanoyl-N-methyl-L-leucyl)”, the ring closure, isolated yield under setting [1] came to 50%.

Regarding “cyclo(D-2-hydroxy-3-phenylpropanoyl-L-prolyl-D-2-hydroxypropanoyl-N-methyl-L-leucyl-D-2-hydroxy-3-phenylpropanoyl-N-methyl-L-leucyl-D-2-hydroxypropanoyl-N-methyl-L-leucyl)”, under “2-chloro-1-methylpyridinium iodide/TEA, DCM, 5.9 mM, 25.0 °C”, the ring closure, isolated yield is 12%. On to “cyclo(D-2-hydroxypropanoyl-L-N-δ-tetrahydroquinoline-3-carboxyl-D-2- hydroxy-3-phenylpropanoyl-N-methyl-L-leucyl-D-2-hydroxypropanoyl-N-methyl-L-leucyl-D-2-hydroxy-3-phenylpropanoyl-N-methyl-L-leucyl)”, for which the ring closure, isolated yield under setting [1] came to 42%. “cylo(D-2-hydroxypropanoyl-L-N-α-tetrahydroquinoline-3-carboxyl-D-2-hydroxypropanoyl-N-methyl-L-leucyl-D-2-hydroxypropanoyl-N-methyl-L-leucyl-D- 2-hydroxypropanoyl-N-methyl-L-leucyl)” displayed a ring closure, isolated yield (2-chloro-1-methylpyridinium iodide/TEA, DCM, 6.0 mM, 25.0 °C) of 50%.

(Values after patent US5776950.)
